13 compounds from patent publication US20250051283A1, “THERAPEUTIC COMPOUNDS AND METHODS” (priority 2023, published 2025) can be followed below.

One experiment concerns EV-D68 US/MO/14-18947. As to the kind of experiment: CPE assay (neutral red) with EV-D68 US/MO/14-18947 in R.D. cells. Type of experiment: cell-based, Enterovirus D68. To be noted: CPE assay, EV-D68 US/MO/14-18947 in R.D. cells; read-out: Antiviral EC50. The procedure: Cell lines and viruses. Human rhabdomyosarcoma (R.D., ATCC, CCL-136) cells were maintained at 37° C. in a 5% CO2 atmosphere and cultured in Dulbecco's modified Eagle's medium (DMEM) supplemented with 10% fetal bovine serum (FBS) and 1% penicillin-streptomycin antibiotics. The following reagents were obtained through BEI Resources, NIAID, NIH: Human Enterovirus D68, US/MO/14-18949, NR-49130; Enterovirus D68, US/MO/14-18947, NR-49129; Enterovirus D68, US/IL/14-18952, NR-49131; Enterovirus D68, US/KY/14-18953, NR-49132; Enterovirus D68, US/IL/14-18956, NR-49133.
Antiviral assays. Cells for antiviral assays were seeded and grown overnight at 37° C. in a 5% CO2 atmosphere for ˜90% confluency the next day. For all infections, cells were washed with PBS containing magnesium and calcium and infected with virus diluted in DMEM with 2% FBS and 30 mM MgCl2. Viruses were incubated for at least 1 h at 33° C. in a 5% CO2 atmosphere, followed by the addition of compound as well as 1% penicillin-streptomycin. For CC50 measurements, the experiment was performed similarly but excluded viral infection. For cytopathic effect (CPE) assays, cells were stained with 66 µg/mL neutral red for 2 h and neutral red uptake was measured at absorbance 540 nm using a Multiskan FC Microplate Photometer (ThermoFisher Scientific). The EC50 and CC50 values were calculated from best-fit dose response curves using GraphPad Prism. For plaque reduction assays, an 1.2% avicel microcrystalline cellulose (FMC BioPolymer, Philadelphia, PA) overlay was used and cells were stained after 3 days as previously described^26.
For the compound `CCC[C@H](NC(=O)[C@@H]1[C@H]2CCC[C@H]2CN1C(=O)[C@@H](NC(=O)CC1C2CC3CC(C2)CC1C3)C(C)(C)C)C(=O)C(=O)NC1CC1` (stereo partly drawn) [Jun1024, (1S)-2-((S)-2-(2-((1S,3S,5S,7S)-adamantan-2-yl)acetamido)-3,3-dimethylbutanoyl)-N—((S)-1-(cyclopropylamino)-1,2-dioxohexan-3-yl)octahydrocyclopenta[c]pyrrole-1-carboxamide], the EC50 turned out to be 180 nM.
The same measure, in the same setting: the figure for `CCC[C@H](NC(=O)[C@@H]1[C@H]2CCC[C@H]2CN1C(=O)[C@@H](NC(=O)C[C@@]12C[C@@H]3C[C@@H](C[C@@](O)(C3)C1)C2)C(C)(C)C)C(=O)C(=O)NC1CC1` [Jun922, (1S,3aR,6aS)—N—((S)-1-(cyclopropylamino)-1,2-dioxohexan-3-yl)-2-((S)-2-(2-((1r,3R,5R,7S)-3-hydroxyadamantan-1-yl)acetamido)-3,3-dimethylbutanoyl)octa-hydrocyclopenta[c]pyrrole-1-carboxamide] is 1850 nM.

The same experiment, now with this note: Enterovirus D, EVD68, RD, read-out: Antiviral EC50, CPE assay, EV-D68 US/MO/14-18947 in R.D. cells.
On to `CCC[C@H](NC(=O)[C@@H]1[C@H]2CCC[C@H]2CN1C(=O)[C@@H](NC(=O)[C@@H](NC(=O)OCc1ccccc1)C1CCCCC1)C(C)(C)C)C(=O)C(=O)NC1CC1` [Jun7453, Benzyl ((S)-1-cyclohexyl-2-(((S)-1-((1S,3aR,6aS)-1-(((S)-1-(cyclopropylamino)-1,2-dioxohexan-3-yl)carbamoyl)hexahydrocyclopenta[c]pyrrol-2(1H)-yl)-3,3-dimethyl-1-oxobutan-2-yl)amino)-2-oxoethyl)carbamate], for which the EC50 was determined as 630 nM.

Staying with this experiment, now noted: Enterovirus D, EVD68, RD; CPE assay, EV-D68 US/MO/14-18947 in R.D. cells; read-out: Antiviral EC50.
For the compound `CCC[C@@H](C#N)NC(=O)[C@@H]1[C@H]2CCC[C@H]2CN1C(=O)C(NC(=O)CC12CC3CC(CC(C3)C1)C2)C(C)(C)C` (stereo partly drawn) [Jun11191, (1S,3aR,6aS)-2-((S)-2-(2-((3S,5S,7S)-adamantan-1-yl)acetamido)-3,3-dimethylbutanoyl)-N—((S)-1-cyanobutyl) octahydro-cyclopenta[c]pyrrole-1-carboxamide], the EC50 is 3920 nM.

Another experiment concerns the target T1, EV-D68 2A^pro (WT-2A^pro, strain US/KY/14-18953, expressed in E. coli BL21(DE3) from pE-SUMOstar vector) (enterovirus D68, UniProt A0A097BW19).
T1 construct: E. coli-codon-optimised gene, pE-SUMOstar, His-SUMO tag (removed with SUMO protease for nontagged form), E. coli BL21(DE3), Ni-NTA; 7JRE is the C107A mutant
As to the kind of experiment: FRET-based enzymatic assay of EV-D68 2A^pro inhibition (FRET substrate Dabcyl-KIRIVNT/GPGFGGE-Edans). Type of experiment: biochemical.
Conditions: not given
The procedure: FIG. 4. […] Key structural variations compared to telaprevir were highlighted in red. Enzymatic inhibitory activity IC50 value was determined in the FRET-based assay. Antiviral EC50 value was determined in the CPE assay with EV-D68 US/MO/14-18947 in R.D. cells. Cytotoxicity CC50 value was determined using the neutral red uptake method in R.D. cells. The results are the mean±standard deviation of two independent experiments with three repeats in each experiment.
FIG. 5. […] Key structural variations compared to Jun8861 were highlighted in red. Enzymatic inhibitory activity IC50 value was determined in the FRET-based assay. Antiviral EC50 value was determined in the CPE assay with EV-D68 US/MO/14-18947 in R.D. cells. Cytotoxicity CC50 value was determined using the neutral red uptake method in R.D. cells. The results are the mean±standard deviation of two independent experiments with three repeats in each experiment.
Protein expression and purification. EV-D68 2A^pro gene from strain US/KY/14-18953 was ordered from Genscript (Piscataway, NJ) in pET28b(+) vector with E. coli codon optimization. 2A^pro gene was subcloned into pE-SUMOstar vector according to the manufacturers protocol. Plasmid encoding WT-2A^pro was transformed into BL21(DE3) competent E. coli cells, and a single colony was picked and used to inoculate 10 mL of L.B. grown supplemented with 50 μg/mL kanamycin at 37° C. at 250 rpm. The 10 mL inoculant was added to 1 L of L.B. with 50 μg/mL kanamycin and grown to an OD600 of 0.8-1.0, cooled to 18° C., then induced using 0.5 mM IPTG. Induced cultures were incubated at 18° C. for an additional 24 h, then harvested and resuspended in lysis buffer (25 mM Tris (pH 7.5); 750 mM NaCl, 2 mM DTT with 0.5 mg/mL lysozyme, 0.5 mM PMSF and 0.02 mg/mL DNase I) and lysed with alternating sonication and French press cycles. The cell debris were removed by centrifugation at 12,000×g for 45 min […]. The supernatant was incubated with Ni-NTA resin for over 2 h at 4° C. on a rotator. The Ni-NTA resin was thoroughly washed with 50 mM imidazole in wash buffer (50 mM Tris (pH 7.5), 150 mM NaCl, and 2 mM DTT); for the SUMO-tagged protein, the protein was directly eluted with 300 mM imidazole; for the nontagged 2A^pro Ni-NTA resin was treated with SUMO Protease 1 to remove the SUMO tag, then 2A^pro was washed off from the column with 10 mM imidazole in wash buffer. The imidazole was removed via dialysis or 10 K molecular weight cut-off centrifugal concentrator spin column. The purity of the protein was confirmed with SDS-PAGE. The protein concentration was determined by classic BCA assay using bovine serum albumin as a standard. EV-D68 3C^pro in pET28b(+) vector was expressed as previously described^10.
Peptide synthesis. The FRET substrate of EV-D68 2A^pro, Dabcyl-KIRIVNT/GPGFGGE-Edans, was synthesized using the Fmoc solid phase synthesis strategy.
Enzymatic assays. The reaction buffer contains 50 mM Tris (pH7.0), 150 mM NaCl, 10% Glycerol, and 2 mM DTT, and the reaction was carried out at 30° C. in Cytation 5 imaging reader (Fisher Scientific) with EX360/40-EM460/40 filter. Reactions were monitored every 90 sec. […] The reaction was initiated by adding 20 μM of FRET substrate, and the reaction was monitored for 2 hours and initial velocity was calculated for the first 30 minutes via linear regression.
On to `CCC[C@H](NC(=O)[C@@H]1[C@H]2CCC[C@H]2CN1C(=O)[C@@H](NC(=O)[C@@H](NC(=O)OCc1ccccc1)C1CCCCC1)C(C)(C)C)C(=O)C(=O)NC1CC1` [Jun7453, Benzyl ((S)-1-cyclohexyl-2-(((S)-1-((1S,3aR,6aS)-1-(((S)-1-(cyclopropylamino)-1,2-dioxohexan-3-yl)carbamoyl)hexahydrocyclopenta[c]pyrrol-2(1H)-yl)-3,3-dimethyl-1-oxobutan-2-yl)amino)-2-oxoethyl)carbamate], for which the midpoint of inhibition, the IC50, lay at 360 ± 20 nM.
Still for that read-out and setting: under `CC(C)(C)[C@H](NC(=O)CC12CC3CC(CC(C3)C1)C2)C(=O)N1C[C@@H]2CCC[C@@H]2[C@H]1C(=O)N[C@H](C(=O)C(=O)NC1CC1)c1ccccc1` [Jun11817, (1S,3aR,6aS)-2-((S)-2-(2-((3S,5S,7S)-adamantan-1-yl)acetamido)-3,3-dimethylbutanoyl)-N—((S)-3-(cyclopropylamino)-2,3-dioxo-1-phenylpropyl)octahydrocyclopenta[c]pyrrole-1-carboxamide] stands 230 ± 80 nM.
On to `COC[C@H](NC(=O)[C@@H]1[C@H]2CCC[C@H]2CN1C(=O)[C@@H](NC(=O)CC12CC3CC(CC(C3)C1)C2)C(C)(C)C)C(=O)C(=O)NC1CC1` [Jun11672, (1S,3aR,6aS)-2-((S)-2-(2-((3S,5S,7S)-adamantan-1-yl)acetamido)-3,3-dimethylbutanoyl)-N—((S)-4-(cyclopropylamino)-1-methoxy-3,4-dioxobutan-2-yl)octahydrocyclopenta[c]pyrrole-1-carboxamide], for which it took 120 ± 70 nM to reach half-maximal inhibition (IC50).
Turning to `CCCC(NC(=O)C1C2CCCC2CN1C(=O)C(NC(=O)CC1C2CC3CC(C2)CC1C3)C(C)(C)C)C(=O)C(=O)NC1CC1` [Jun1024, (1S)-2-((S)-2-(2-((1S,3S,5S,7S)-adamantan-2-yl)acetamido)-3,3-dimethylbutanoyl)-N—((S)-1-(cyclopropylamino)-1,2-dioxohexan-3-yl)octahydrocyclopenta[c]pyrrole-1-carboxamide], the 50% inhibitory concentration (IC50) (as a rule, the concentration needed to halve the response being measured) came out at 120 ± 10 nM.
On the same count and under the same terms, under `CC(C)(C)[C@H](NC(=O)CC12CC3CC(CC(C3)C1)C2)C(=O)N1C[C@@H]2CCC[C@@H]2[C@H]1C(=O)N[C@H](C(=O)C(=O)NC1CC1)c1ccc(F)cc1` [Jun11861, (1S,3aR,6aS)-2-((S)-2-(2-((3S,5S,7S)-adamantan-1-yl)acetamido)-3,3-dimethylbutanoyl)-N—((S)-3-(cyclopropylamino)-1-(4-fluorophenyl)-2,3-dioxopropyl)octahydrocyclopenta[c]pyrrole-1-carboxamide] stands 350 ± 130 nM.
Consider `CC(C)(C)C(NC(=O)CC12CC3CC(CC(C3)C1)C2)C(=O)N1CC2CCCC2C1C(=O)NC(C(=O)C(N)=O)C1CCCCC1` [Jun11725, (1S,3aR,6aS)-2-((S)-2-(2-((3S,5S,7S)-adamantan-1-yl)acetamido)-3,3-dimethylbutanoyl)-N—((S)-3-amino-1-cyclohexyl-2,3-dioxopropyl)octahydro-cyclopenta[c]pyrrole-1-carboxamide], for which the IC50 turned out to be 190 ± 20 nM.
On to `CC(C)(C)[C@H](NC(=O)CC12CC3CC(CC(C3)C1)C2)C(=O)N1C[C@@H]2CCC[C@@H]2[C@H]1C(=O)NC1(C(=O)C(=O)NC2CC2)CCCCC1` [Jun11805, (1S,3aR,6aS)-2-((S)-2-(2-((3S,5S,7S)-adamantan-1-yl)acetamido)-3,3-dimethylbutanoyl)-N-(1-(2-(cyclopropylamino)-2-oxoacetyl)cyclohexyl)octahydrocyclopenta[c]pyrrole-1-carboxamide], for which the concentration for half-maximal inhibition (IC50) stood at 740 ± 140 nM.
On to `CC(C)(C)[C@H](NC(=O)CC12CC3CC(CC(C3)C1)C2)C(=O)N1C[C@@H]2CCC[C@@H]2[C@H]1C(=O)N[C@@H](Cc1ccsc1)C(=O)C(=O)NC1CC1` [Jun11818], for which the IC50 stood at 120 ± 20 nM.
Consider `CC(C)(C)[C@H](NC(=O)CC12CC3CC(CC(C3)C1)C2)C(=O)N1C[C@@H]2CCC[C@@H]2[C@H]1C(=O)NC1(C(=O)C(=O)NC2CC2)CCC1` [Jun11806, (1S,3aR,6aS)-2-((S)-2-(2-((3S,5S,7S)-adamantan-1-yl)acetamido)-3,3-dimethylbutanoyl)-N-(1-(2-(cyclopropylamino)-2 oxoacetyl)cyclobutyl)octahydrocyclopenta[c]pyrrole-1-carboxamide], for which 4810 ± 810 nM corresponded to half-maximal inhibition (IC50).
On the same count and under the same terms, the figure for `CCCC(NC(=O)C1C2CCCC2CN1C(=O)C(NC(=O)CC12CC3CC(CC(O)(C3)C1)C2)C(C)(C)C)C(=O)C(=O)NC1CC1` [Jun922, (1S,3aR,6aS)—N—((S)-1-(cyclopropylamino)-1,2-dioxohexan-3-yl)-2-((S)-2-(2-((1r,3R,5R,7S)-3-hydroxyadamantan-1-yl)acetamido)-3,3-dimethylbutanoyl)octa-hydrocyclopenta[c]pyrrole-1-carboxamide] is 400 ± 50 nM.
